pIC50: −log10 of the molar value. Like-named read-outs stand apart in the source and are kept apart here.
How the values were obtained:
BC3 (PEL) = experiment: cells; assay type: cell-based
Procedure: (§1) Cell viability assays were performed by plating log-phase cells in RPMI complete media with 20% FBS at 1*10^5 cells/mL, with concentrations of 6-ETI or phospho-6-ETI ranging from 0.1 nM to 100 μM. ATP content at 24, 48 and 72 hours post-treatment was measured by the CellTiter-Glo kit (Promega, Madison, Wis.), or by Trypan blue assay as indicated. The LC50 for 6-ETI in each cell line was determined using online EC50 software at changbioscience.com or using GraphPad Prism to determine the LC50 for 6-ETI, phospho-6-ETI and nucleoside analogs in MM cell lines and primary MM patient samples.

IBL-1 (EBV+ DLBCL) = experiment: cells; assay type: cell-based
Procedure: as §1

U266 (MM) = experiment: cells; assay type: cell-based
Procedure: as §1

[1] = tested on: BC3 cells treated with 6-ETI; experiment: 6-ETI viability curves after ADK inhibitor pre-treatment; assay type: cell-based, human; conditions: pre-treatment with 1 μM ADK inhibitor
Procedure: as §1

ADK = ADK (Homo sapiens, UniProt P55263); conditions: known values; read-out: IC50 of ADK inhibition in intact cells; cited from earlier work
Sequence of ADK (P55263 whole entry): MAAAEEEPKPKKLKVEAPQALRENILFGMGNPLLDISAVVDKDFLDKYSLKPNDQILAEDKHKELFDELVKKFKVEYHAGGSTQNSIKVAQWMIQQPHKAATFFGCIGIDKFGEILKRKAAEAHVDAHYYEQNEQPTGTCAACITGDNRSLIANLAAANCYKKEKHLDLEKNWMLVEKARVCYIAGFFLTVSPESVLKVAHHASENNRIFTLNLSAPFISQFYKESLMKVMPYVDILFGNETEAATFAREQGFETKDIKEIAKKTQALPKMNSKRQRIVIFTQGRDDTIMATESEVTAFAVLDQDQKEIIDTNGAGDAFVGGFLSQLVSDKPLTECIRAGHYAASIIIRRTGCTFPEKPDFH

PEL cell line = PEL cell line viability assay of C8-modified analogs; assay type: cell-based
Procedure: as §1

[2] = tested on: BC3NFRen-luc #3 PEL xenograft; experiment: PEL xenograft model (BC3NFRen-luc #3 in NOD-SCID mice); assay type: in vivo; conditions: 200 mg/kg for 9 days
Procedure: The BC3 in vivo xenograft model was set up as previously described (6). Essentially, ˜4-6 week old male NOD-SCID mice (Jackson Labs Stock# 001303) were injected intraperitoneally (I.P.) with 1*10^7 BC3NFRen-luc #3 cells and followed by in vivo imaging every three days. After imaging on day 5 to confirm establishment of the tumor, the mice were randomized to vehicle, low dose and high dose cohorts, with average tumor burden distributed evenly across the groups. Each dose cohort contained 10 mice. Mice were treated for nine days beginning at randomization with vehicle (PBS-Tween80), low dose 6-ETI (150 mg/kg/day), or high dose 6-ETI (300 mg/kg/day). Mice were treated with 200 mg/kg of the 6-ETI analogs (phospho-6ETI and 6-ETI cAMP) for 9 days. We monitored mice for tumor growth by live imaging and weighing, with sacrifice point determined to be a net gain or loss of 10% body weight over a week. Upon reappearance of refractory tumors, mice were re-treated for a further 9-day interval, and followed for a total of 100 days. Compound effects were assessed on overall survival, progression-free survival and tumor burden by Kaplan-Meier curves generated using GraphPad Prism software, and determined p values by 2-tailed analysis with log-rank tests.

[3] = tested on: colon (RKO, HCT116, DID1) and pancreatic (PA-TU-8988T) cancer cell lines; experiment: Viability of adenocarcinoma cell lines; assay type: cell-based
Procedure: as §1

[4] = tested on: sensitive cell lines (expressing ADK at high levels); experiment: Viability in 6-ETI-sensitive cell lines; assay type: cell-based; conditions: p6-ETI: sensitive ADK-high lines; c6-ETI: PEL, MM, colon and pancreatic adenocarcinoma lines
Procedure: as §1

[5] = tested on: MM cell lines JJN3, MM1S, U266 and CAG; experiment: CellTiter-Glo viability assay, MM cell lines; assay type: cell-based; conditions: 48 hrs
Procedure: as §1

[6] = tested on: ADK-low resistant cell lines; experiment: Viability in ADK-low resistant cell lines; assay type: cell-based; conditions: some lines, not all
Procedure: as §1

[7] = Homo sapiens, 48 h, read-out: LC50 BC3 (PEL) in nM
[8] = Homo sapiens, 48 h, read-out: LC50 IBL-1 (DLBCL)
[9] = Homo sapiens, U-266, 48 h, read-out: LC50 U266 (MM) in nM
[10] = Homo sapiens, 48 h, read-out: LC50 BC3 (PEL)
[11] = Homo sapiens, U-266, 48 h, read-out: LC50 U266 (MM)

## Sc1ncnc2nc[nH]c12 [6-Mercaptopurine]
BC3 (PEL); [7]
  CC50: 5140 nM
IBL-1 (EBV+ DLBCL); [8]
  CC50: > 100000 nM
U266 (MM); [9]
  CC50: 10300 nM

## Nc1ncnc2nc(-c3ccc(N4CCOCC4)nc3)cc(-c3cccc(Br)c3)c12 [ABT-702]
[1]
  rescue from 6-ETI-induced cell death: effectively rescued PEL cells from cell death
ADK
  pIC50: 7.29

## CCSc1ncnc2c1nc(Br)n2[C@@H]1O[C@H](CO)[C@@H](O)[C@H]1O [Br group at C8 position, 8-bromo, 6-thioehtyl purine riboside]
PEL cell line
  pIC50: 5.09

## CCSc1ncnc2c1nc(Cl)n2[C@@H]1O[C@H](CO)[C@@H](O)[C@H]1O [C1 group at C8 position, 8-chloro, 6-thioethyl purine riboside]
PEL cell line
  pIC50: 5.85

## Nc1nc(Cl)nc2c1ncn2[C@H]1C[C@H](O)[C@@H](CO)O1 [Cladribine]
BC3 (PEL); [7]
  CC50: 5240 nM
IBL-1 (EBV+ DLBCL); Homo sapiens, 48 h, read-out: LC50 IBL-1 (DLBCL) in nM
  CC50: 290 nM
U266 (MM); [9]
  CC50: 29200 nM

## Nc1ncnc2c1c(I)cn2[C@@H]1C[C@H](N)[C@@H](O)[C@H]1O [Compound A-134974]
[1]
  rescue from 6-ETI-induced cell death: effectively rescued PEL cells from cell death
ADK
  pIC50: 7.30

## O=c1[nH]cnc2c1ncn2[C@H]1CC[C@@H](CO)O1 [Didanosine]
BC3 (PEL); [10]
  CC50: > 100000 nM
IBL-1 (EBV+ DLBCL); [8]
  CC50: > 100000 nM
U266 (MM); [11]
  CC50: > 100000 nM

## Nc1nc(F)nc2c1ncn2[C@@H]1O[C@H](CO)[C@@H](O)[C@@H]1O [Fludarabine]
BC3 (PEL); 48 hours, CellTiter-Glo, read-out: LC50 BC3 (PEL)
  CC50: > 100000 nM
IBL-1 (EBV+ DLBCL); 48 hours, CellTiter-Glo, read-out: LC50 IBL-1 (DLBCL)
  CC50: 28900 nM
U266 (MM); 48 hours, CellTiter-Glo, read-out: LC50 U266 (MM)
  CC50: 90700 nM

## CCSc1ncnc2c1nc(N=[N+]=[N-])n2C1OC(CO)C(O)C1O (stereo not shown) [N3 group at C8 position]
PEL cell line
  pIC50: 5.95

## Nc1ncnc2c1ncn2[C@@H]1O[C@H](CO)[C@@H](O)[C@@H]1O [Vidarabine]
BC3 (PEL); [10]
  CC50: > 100000 nM
IBL-1 (EBV+ DLBCL); [8]
  CC50: > 100000 nM
U266 (MM); [11]
  CC50: > 100000 nM

## CCSc1ncnc2c1ncn2[C@@H]1O[C@@H]2COP(=O)(O)OC2C1O (stereo partly shown) [c6-ETI]
[2]
  tumor growth in vivo: effectively inhibited tumor growth in vivo
[3]
  LC50: nanomolar range
[4]
  effectiveness compared with 6-ETI: equally as effective

## CCSc1ncnc2c1ncn2[C@@H]1O[C@H](COP(=O)(O)O)[C@@H](O)[C@H]1O [p6-ETI]
IBL-1 (EBV+ DLBCL); IBL-1 express low levels of ADK, 48 hrs
  effect on resistance of IBL-1 cells: partially overcomes resistance
[2]
  tumor growth in vivo: effectively inhibited tumor growth in vivo
[5]
  LC50: high nM range
[3]
  LC50: nanomolar range
[4]
  effectiveness compared with 6-ETI: equally effective as 6-ETI
[6]
  sensitivity of ADK-low resistant cell lines: only partial sensitivity

— patent US20190225643A1, “NOVEL NUCLEOSIDE ANALOGS AND USE THEREOF IN THERAPEUTIC TREATMENT” (CORNELL UNIVERSITY, priority 2016, published 2019)
